Measured values as given in PubChem BioAssay AID1963965 (Molecular Pharmacology Branch, DTP, NCI, 2024).
Values belong to the molecule of their own block, whether it stands above or below them.

Tested on: 996289-038-R-J1-PDC spheroid viability
Assay: Anticancer human tumor 996289-038-R-J1-PDC patient-derived colon adenocarcinoma cell line growth inhibition [PI3K]
Settings: spheroids with HUVEC and MSC; for IC50: curve of first compound; for viability, T/C: stronger effect = lower value
Summary of the method: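 Stroma-containing spheroids: tumor line, pooled-donor HUVEC, hMSC. Treatments: targeted agents with PI3K inhibitors. Dosing: clinically relevant, half-log spacing, 10 microM ceiling without known Cmax. Read-out: cell viability.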

[1] = second compound 0.00316 µM, first compound 0.0316 µM
[2] = second compound 0.00316 µM, first compound 0.1 µM
[3] = second compound 0.00316 µM, first compound 0.316 µM
[4] = second compound 0.00316 µM, first compound 1 µM
[5] = second compound 0.00316 µM, first compound 3.16 µM
[6] = second compound 0.00316 µM, first compound 10 µM
[7] = second compound 0.01 µM, first compound 0.0316 µM
[8] = second compound 0.01 µM, first compound 0.1 µM
[9] = second compound 0.01 µM, first compound 0.316 µM
[10] = second compound 0.01 µM, first compound 1 µM
[11] = second compound 0.01 µM, first compound 3.16 µM
[12] = second compound 0.01 µM, first compound 10 µM
[13] = second compound 0.0316 µM, first compound 0.0316 µM
[14] = second compound 0.0316 µM, first compound 0.1 µM
[15] = second compound 0.0316 µM, first compound 0.316 µM
[16] = second compound 0.0316 µM, first compound 1 µM
[17] = second compound 0.0316 µM, first compound 3.16 µM
[18] = second compound 0.0316 µM, first compound 10 µM
[19] = second compound 0.1 µM, first compound 0.0316 µM
[20] = second compound 0.1 µM, first compound 0.1 µM
[21] = second compound 0.1 µM, first compound 0.316 µM
[22] = second compound 0.1 µM, first compound 1 µM
[23] = second compound 0.1 µM, first compound 3.16 µM
[24] = second compound 0.1 µM, first compound 10 µM
[25] = second compound 0.316 µM, first compound 0.0316 µM
[26] = second compound 0.316 µM, first compound 0.1 µM
[27] = second compound 0.316 µM, first compound 0.316 µM
[28] = second compound 0.316 µM, first compound 1 µM
[29] = second compound 0.316 µM, first compound 3.16 µM
[30] = second compound 0.316 µM, first compound 10 µM
[31] = second compound 1 µM, first compound 0.0316 µM
[32] = second compound 1 µM, first compound 0.1 µM
[33] = second compound 1 µM, first compound 0.316 µM
[34] = second compound 1 µM, first compound 1 µM
[35] = second compound 1 µM, first compound 3.16 µM
[36] = second compound 1 µM, first compound 10 µM
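Further: spheroids exposed to compounds for seven days before viability read.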
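Wherever viability, T/C is given: luminescence used as a proxy for viable cell amount; percent viability relative to DMSO vehicle control as 100%.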

IC50 (second compound 0.00316 µM): 8.46 µM
IC50 (second compound 0.01 µM): 8.25 µM
IC50 (second compound 0.0316 µM): 6.53 µM
IC50 (second compound 0.1 µM): 6.52 µM
IC50 (second compound 0.316 µM): 4.81 µM
IC50 (second compound 1 µM): 4.21 µM
Structure (SMILES): CC1(C)CCC(CN2CCN(c3ccc(C(=O)NS(=O)(=O)c4ccc(NCC5CCOCC5)c([N+](=O)[O-])c4)c(Oc4cnc5[nH]ccc5c4)c3)CC2)=C(c2ccc(Cl)cc2)C1 + CC(Nc1ccc2c(c1)OCCn1cc(N3C(=O)OCC3C(F)F)nc1-2)C(N)=O
viability, T/C [1]: 83.7%
viability, T/C [2]: 77.4%
viability, T/C [3]: 95.8%
viability, T/C [4]: 112%
viability, T/C [5]: 93.5%
viability, T/C [6]: 42.7%
viability, T/C [7]: 92.3%
viability, T/C [8]: 86.7%
viability, T/C [9]: 87.4%
viability, T/C [10]: 111%
viability, T/C [11]: 94.5%
viability, T/C [12]: 41%
viability, T/C [13]: 95.2%
viability, T/C [14]: 88.2%
viability, T/C [15]: 94.7%
viability, T/C [16]: 84.2%
viability, T/C [17]: 90%
viability, T/C [18]: 26.5%
viability, T/C [19]: 80.3%
viability, T/C [20]: 81.4%
viability, T/C [21]: 79.1%
viability, T/C [22]: 96.7%
viability, T/C [23]: 86.3%
viability, T/C [24]: 29.4%
viability, T/C [25]: 70.3%
viability, T/C [26]: 62.3%
viability, T/C [27]: 61.7%
viability, T/C [28]: 61.2%
viability, T/C [29]: 74.6%
viability, T/C [30]: 22%
viability, T/C [31]: 55.5%
viability, T/C [32]: 50.7%
viability, T/C [33]: 59.3%
viability, T/C [34]: 59.8%
viability, T/C [35]: 73.3%
viability, T/C [36]: 25.9%

IC50 (second compound 0.0316 µM): > 10 µM
IC50 (second compound 0.1 µM): > 10 µM
IC50 (second compound 0.316 µM): > 10 µM
IC50 (second compound 1 µM): > 10 µM
IC50 (second compound 3.16 µM): > 10 µM
IC50 (second compound 10 µM): > 10 µM
Structure (SMILES): CC(C)NCC(C(=O)N1CCN(c2ncnc3c2C(C)CC3O)CC1)c1ccc(Cl)cc1 (stereo not drawn) + CC(Nc1ncnc2nc[nH]c12)c1cc2cccc(Cl)c2c(=O)n1-c1ccccc1
viability, T/C [13]: 86.1%
viability, T/C [14]: 80.3%
viability, T/C [15]: 100%
viability, T/C [16]: 94.1%
viability, T/C [17]: 87.4%
viability, T/C [18]: 75.1%
viability, T/C [19]: 96.5%
viability, T/C [20]: 96.8%
viability, T/C [21]: 89.9%
viability, T/C [22]: 94.7%
viability, T/C [23]: 87.1%
viability, T/C [24]: 69.4%
viability, T/C [25]: 94.9%
viability, T/C [26]: 93.8%
viability, T/C [27]: 95.2%
viability, T/C [28]: 90%
viability, T/C [29]: 92.2%
viability, T/C [30]: 72.3%
viability, T/C [31]: 86.4%
viability, T/C [32]: 92.3%
viability, T/C [33]: 90.8%
viability, T/C [34]: 77.8%
viability, T/C [35]: 101%
viability, T/C [36]: 74.9%
viability, T/C (second compound 3.16 µM, first compound 0.0316 µM): 88.1%
viability, T/C (second compound 3.16 µM, first compound 0.1 µM): 85%
viability, T/C (second compound 3.16 µM, first compound 0.316 µM): 85.4%
viability, T/C (second compound 3.16 µM, first compound 1 µM): 94.7%
viability, T/C (second compound 3.16 µM, first compound 3.16 µM): 94.9%
viability, T/C (second compound 3.16 µM, first compound 10 µM): 68.6%
viability, T/C (second compound 10 µM, first compound 0.0316 µM): 88.8%
viability, T/C (second compound 10 µM, first compound 0.1 µM): 78.7%
viability, T/C (second compound 10 µM, first compound 0.316 µM): 85.5%
viability, T/C (second compound 10 µM, first compound 1 µM): 84.2%
viability, T/C (second compound 10 µM, first compound 3.16 µM): 101%
viability, T/C (second compound 10 µM, first compound 10 µM): 56.2%

IC50 (second compound 0.00316 µM): > 10 µM
IC50 (second compound 0.01 µM): > 10 µM
IC50 (second compound 0.0316 µM): 9.77 µM
IC50 (second compound 0.1 µM): 9.01 µM
IC50 (second compound 0.316 µM): 4.82 µM
IC50 (second compound 1 µM): 2.25 µM
Structure (SMILES): Cn1nccc1Nc1nccc(-c2ccn(C(CO)c3ccc(Cl)c(F)c3)c(=O)c2)n1 (stereo not drawn) + CC(Nc1ccc2c(c1)OCCn1cc(N3C(=O)OCC3C(F)F)nc1-2)C(N)=O
viability, T/C [1]: 104%
viability, T/C [2]: 98%
viability, T/C [3]: 117%
viability, T/C [4]: 106%
viability, T/C [5]: 94.4%
viability, T/C [6]: 58.4%
viability, T/C [7]: 104%
viability, T/C [8]: 95.3%
viability, T/C [9]: 105%
viability, T/C [10]: 103%
viability, T/C [11]: 70.8%
viability, T/C [12]: 53.4%
viability, T/C [13]: 98.9%
viability, T/C [14]: 110%
viability, T/C [15]: 86.8%
viability, T/C [16]: 93.6%
viability, T/C [17]: 67.8%
viability, T/C [18]: 50%
viability, T/C [19]: 87.9%
viability, T/C [20]: 89.6%
viability, T/C [21]: 97.2%
viability, T/C [22]: 81%
viability, T/C [23]: 78.7%
viability, T/C [24]: 46.8%
viability, T/C [25]: 79.5%
viability, T/C [26]: 74.5%
viability, T/C [27]: 61.4%
viability, T/C [28]: 67.6%
viability, T/C [29]: 58.2%
viability, T/C [30]: 39.5%
viability, T/C [31]: 56.2%
viability, T/C [32]: 64.4%
viability, T/C [33]: 53.7%
viability, T/C [34]: 73.3%
viability, T/C [35]: 45%
viability, T/C [36]: 30.2%

IC50 (second compound 0.00316 µM): > 10 µM
IC50 (second compound 0.01 µM): > 10 µM
IC50 (second compound 0.0316 µM): 5.91 µM
IC50 (second compound 0.1 µM): 2.56 µM
IC50 (second compound 0.316 µM): < 0.0316 µM
IC50 (second compound 1 µM): < 0.0316 µM
Structure (SMILES): Cn1nccc1Nc1nccc(-c2ccn(C(CO)c3ccc(Cl)c(F)c3)c(=O)c2)n1 (stereo not drawn) + COc1c(OCCCN2CCOCC2)ccc2c3n(c(=NC(=O)c4cnc(N)nc4)nc12)CCN3
viability, T/C [1]: 94.8%
viability, T/C [2]: 82.6%
viability, T/C [3]: 104%
viability, T/C [4]: 83.6%
viability, T/C [5]: 86.4%
viability, T/C [6]: 55.6%
viability, T/C [7]: 95.6%
viability, T/C [8]: 87.5%
viability, T/C [9]: 91.2%
viability, T/C [10]: 93.6%
viability, T/C [11]: 73.3%
viability, T/C [12]: 56.3%
viability, T/C [13]: 100%
viability, T/C [14]: 80.1%
viability, T/C [15]: 80%
viability, T/C [16]: 76%
viability, T/C [17]: 58%
viability, T/C [18]: 41.2%
viability, T/C [19]: 69.5%
viability, T/C [20]: 62.8%
viability, T/C [21]: 64.3%
viability, T/C [22]: 54%
viability, T/C [23]: 51.9%
viability, T/C [24]: 22.4%
viability, T/C [25]: 44.9%
viability, T/C [26]: 34.7%
viability, T/C [27]: 35%
viability, T/C [28]: 36.4%
viability, T/C [29]: 27.9%
viability, T/C [30]: 18.5%
viability, T/C [31]: 18.8%
viability, T/C [32]: 20.6%
viability, T/C [33]: 24%
viability, T/C [34]: 17.7%
viability, T/C [35]: 15%
viability, T/C [36]: 9.77%
